In publication PMC11436104 (Toxins, 2024):
Several values for one entry are separate records, joined by “and”; a condition that tells them apart may be missing. Equal values may be shown once. Read-outs that look alike come from different tables or passages of the source. *1 amine or outer side, *2 acyl side, *3 side chain or, on linkers, in order; H or OH if unused. Where a SMILES comes first, the peptide text is derived from it. Bridges are numbered along the chain shown (N, C = ends). [ ]: non-standard residue; d: D form. Adda = CO[C@@H](Cc1ccccc1)[C@@H](C)/C=C(C)/C=C/[C@H](N[*:1])[C@H](C)C(=O)[*:2]; dAsp(3S-Me) = C[C@H](C(=O)[*:3])[C@@H](N[*:1])C(=O)[*:2]; d(γGlu) = O=C(O)[C@@H](CCC(=O)[*:2])N[*:1]; hTyr = N[C@@H](CCc1ccc(O)cc1)C(=O)O; NMeA = CN[C@@H](C)C(=O)O; NMeDha = C=C(NC)C(=O)O; CO = O=C([*:1])[*:2]

Assays:
[1] = molecular target: T1, Ser/Thr protein phosphatase type-1 (PP1; α isoform catalytic subunit) (Oryctolagus cuniculus, UniProt P62139); test: Colorimetric protein phosphatase inhibition assay, p-nitrophenyl phosphate substrate; format: biochemical, rabbit
T1 construct: purchased Sigma 539493; host or cells: Escherichia coli
T1 sequence (P62139 whole entry, canonical isoform): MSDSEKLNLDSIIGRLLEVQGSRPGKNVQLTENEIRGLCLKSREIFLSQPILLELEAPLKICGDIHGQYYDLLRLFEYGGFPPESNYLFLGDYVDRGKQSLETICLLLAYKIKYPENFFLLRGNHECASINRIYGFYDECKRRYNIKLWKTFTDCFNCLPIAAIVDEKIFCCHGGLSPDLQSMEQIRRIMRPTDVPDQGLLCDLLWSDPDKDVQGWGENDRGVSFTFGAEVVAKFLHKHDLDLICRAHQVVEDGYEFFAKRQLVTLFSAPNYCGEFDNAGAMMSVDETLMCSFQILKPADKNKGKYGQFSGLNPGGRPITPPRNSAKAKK
Description: The inhibition of Ser/Thr protein phosphatases by the CCPs was measured using the colorimetric inhibition assay described by An and Carmichael and Gkelis et al., with some modifications. […] Enzymes, PP1 and PP2A, were diluted in reaction buffer #1 (50 mM Tris-HCl, 1.0 g/L bovine serum albumin, 1.0 mM MnCl2, 2.0 mM dithiothreitol, pH 7.4), and p-nitrophenyl phosphate was prepared in substrate buffer (0.1 M glycine, pH 10.4, 1 mM MgCl2, 1 mM ZnCl2). The assay was performed by the addition of each CCP (as a potential inhibitor; final concentrations, 0.1, 1, 10, and 100 µM) to the enzyme solution (i.e., PP1 and PP2A; final concentrations, 1 U/well and 0.01 U/well, respectively, where 1 U hydrolyzes 1 nmole of substrate per minute at pH 7.4 at 30 °C). After a few seconds of gentle shaking, the microplate was kept at room temperature for 5 min, followed by the addition of reaction buffer #2 (50 mM Tris-HCl, 0.5 g/L bovine serum albumin, 0.2 mM MnCl2, 20 mM MgCl2, and pH 8.1) for PP1, or reaction buffer #1 for PP2A. The reactions were started by the addition of p-nitrophenyl phosphate (final concentrations, 15 mM for PP1 and 10 mM for PP2A) and were carried out for 120 min at 37 °C. The hydrolysis of p-nitrophenyl phosphate to […] was recorded at 405 nm using a microplate reader (Tecan, Austria). The inhibition percentages (X) were calculated from the absorbances of the samples after incubation for 30 min, as according to Equation (1):X (%) = (APP − AS)/APP × 100,(1) where APP is the absorbance of the control sample (i.e., enzyme only), and AS is the absorbance of the test sample (i.e., enzyme with potential inhibitor). […] All measurements were repeated a minimum of three independent times, with five technical replicates per experiment. IC50 values are expressed as means ± SD.

[2] = system: ACTB; test: Gene expression by quantitative real-time PCR in U-87MG cells; format: cell-based, human; settings: 24 h, relative to non-treated control
Description: (§1) Cells were seeded onto 6-well plates, left to attach for 16 h, and treated with each non-hCCP separately (0.1–10 µM) and the hepatotoxic MC-LR (0.01–1 µM) for 24 h at 37 °C in the CO2 incubator. The total RNA from the cells (0.5–1.0 × 10^6 cells) was isolated using the TRIzol reagent (Invitrogen), and the cDNA was synthesized using 1 μg total RNA with cDNA high-capacity archive kits (Applied Biosystems, Foster City, CA, USA), according to the manufacturer’s protocol.
(§2) The expression levels of TUBA1A, ACTB, NES, and GFAP were quantified using quantitative real-time PCR (ABI 7900 HT Sequence Detection System; Applied Biosystems). TaqMan Universal PCR Master Mix and the following TaqMan Gene Expression Assays were used: TUBA1A: tubulin, alpha 1a, Hs00362387_m1; ACTB: actin, beta, Hs99999903_m1; NES, nestin, Hs00707120_s1; and GFAP, glial fibrillary acidic protein, and Hs00157674_m1 (all from Applied Biosystems). Amplification of a glyceraldehyde 3-phosphate dehydrogenase probe GAPDH (Human Endogenous Controls, Cat. # 4310884E; Applied Biosystems) was performed as an internal control. The conditions for the quantitative real-time PCR were as follows: 50 °C for 2 min, 95 °C for 10 min, 40 cycles of 95 °C for 15 s, and 60 °C for 1 min.
(§3) The data obtained from the TaqMan Gene Expression Assays were analyzed using the ΔΔCt algorithm. Two replicates per concentration and three independent experiments were performed. The statistical significance between the controls and the treated groups was determined using two-tailed Student’s t-tests, where p < 0.05 was statistically significant. In addition, the relative expression was normalized to the housekeeping gene GAPDH (relative quantification), with at least three sample concentrations used for each gene in both untreated cell lines.

[3] = system: GFAP; test: as above; format: cell-based, human; settings: 24 h, relative to non-treated control
Description: as §1, §2, §3

[4] = system: NES; test: as above; format: cell-based, human
Description: as §1, §2, §3

[5] = system: TUBA1A; test: as above; format: cell-based, human
Description: as §1, §2, §3

[6] = means ± SD, p-nitrophenyl phosphate 15 mM
[7] = U-87MG, 0.1 µM CCP, 24 h, relative to non-treated control
[8] = U-87MG, 1 µM CCP, 24 h, relative to non-treated control
[9] = U-87MG, 10 µM CCP, 24 h, relative to non-treated control

## CC[C@H](C)[C@@H]1NC(=O)[C@H](Cc2ccc(OC)cc2)N(C)C(=O)[C@H]([C@@H](C)O)N2C(=O)[C@H](CC[C@H]2O)NC(=O)[C@H](CC(C)C)NC(=O)[C@@H](NC(=O)[C@H](CCC(N)=O)NC(=O)[C@H](CCc2ccc(O)cc2)NC(=O)[C@@H](O)CO)[C@@H](C)OC1=O
[1]; [6]
  IC50: 132 ± 87.5 µM
[2]; 0.1 µM CCP
  Changes in gene expression of ACTB: 1.015 ± 0.057
[2]; 1 µM CCP
  Changes in gene expression of ACTB: 1.051 ± 0.185
[2]; 10 µM CCP
  Changes in gene expression of ACTB: 1.147 ± 0.105
[3]; 0.1 µM CCP
  Changes in gene expression of GFAP: 1.107 ± 0.214
[3]; 1 µM CCP
  Changes in gene expression of GFAP: 1.283 ± 0.185
[3]; 10 µM CCP
  Changes in gene expression of GFAP: 1.016 ± 0.046
[4]; [7]
  Changes in gene expression of NES: 1.003 ± 0.164
[4]; [8]
  Changes in gene expression of NES: 1.069 ± 0.105
[4]; [9]
  Changes in gene expression of NES: 1.240 ± 0.041
[5]; [7]
  Changes in gene expression of TUBA1A: 1.124 ± 0.050
[5]; [8]
  Changes in gene expression of TUBA1A: 1.094 ± 0.172
[5]; [9]
  Changes in gene expression of TUBA1A: 1.171 ± 0.049

## C=C1C(=O)N[C@H](C)C(=O)N[C@@H](CC(C)C)C(=O)N[C@@H](C(=O)O)[C@H](C)C(=O)N[C@@H](CCCNC(=N)N)C(=O)N[C@@H](/C=C/C(C)=C/[C@H](C)[C@H](Cc2ccccc2)OC)[C@H](C)C(=O)N[C@@H](C(=O)O)CCC(=O)N1C [MC-LR, Microcystin-LR, reference compound] (R[Adda][d(γGlu)][NMeDha][dA]L[dAsp(3S-Me)]-OH; lactam N-7)
[1]
  IC50: 0.005 ± 0.0016 µM
[4]
  Changes in gene expression of NES: 1.030 ± 0.105 and 0.877 ± 0.148
[5]
  Changes in gene expression of TUBA1A: 1.031 ± 0.064 and 0.983 ± 0.099

## CC(C)[C@@H]1NC(=O)[C@H](NC(=O)N[C@@H](CCCNC(=N)N)C(=O)O)CCCCNC(=O)[C@H](Cc2ccccc2)NC(=O)[C@H](C)N(C)C(=O)[C@H](CCc2ccc(O)cc2)NC1=O [anabaenopeptin B] ({Arg-CO}-[dK]V[hTyr][NMeA]F; lactam 1-C)
[1]; [6]
  IC50: 9.5 ± 0.9 µM
[2]; 0.1 µM CCP
  Changes in gene expression of ACTB: 0.998 ± 0.070
[2]; 1 µM CCP
  Changes in gene expression of ACTB: 1.039 ± 0.070
[2]; 10 µM CCP
  Changes in gene expression of ACTB: 1.122 ± 0.033
[3]; 0.1 µM CCP
  Changes in gene expression of GFAP: 1.088 ± 0.390
[3]; 10 µM CCP
  Changes in gene expression of GFAP: 1.175 ± 0.148
[4]; [7]
  Changes in gene expression of NES: 0.948 ± 0.143
[4]; [8]
  Changes in gene expression of NES: 0.992 ± 0.085
[4]; [9]
  Changes in gene expression of NES: 0.931 ± 0.054
[5]; [7]
  Changes in gene expression of TUBA1A: 1.131 ± 0.031
[5]; [8]
  Changes in gene expression of TUBA1A: 1.098 ± 0.192
[5]; [9]
  Changes in gene expression of TUBA1A: 1.429 ± 0.068

## CC[C@H](C)[C@@H]1NC(=O)[C@H](NC(=O)N[C@@H](CCCNC(=N)N)C(=O)O)CCCCNC(=O)[C@H](Cc2ccccc2)NC(=O)[C@H](C)N(C)C(=O)[C@H](CCc2ccc(O)cc2)NC1=O [anabaenopeptin F] ({Arg-CO}-[dK]I[hTyr][NMeA]F; lactam 1-C)
[1]; [6]
  IC50: 28.2 ± 3.4 µM
[2]; 0.1 µM CCP
  Changes in gene expression of ACTB: 0.935 ± 0.118
[2]; 1 µM CCP
  Changes in gene expression of ACTB: 1.084 ± 0.138
[2]; 10 µM CCP
  Changes in gene expression of ACTB: 1.046 ± 0.130
[3]; 0.1 µM CCP
  Changes in gene expression of GFAP: 1.002 ± 0.087
[3]; 1 µM CCP
  Changes in gene expression of GFAP: 1.096 ± 0.211
[3]; 10 µM CCP
  Changes in gene expression of GFAP: 1.191 ± 0.435
[4]; [7]
  Changes in gene expression of NES: 1.040 ± 0.105
[4]; [8]
  Changes in gene expression of NES: 1.081 ± 0.056
[4]; [9]
  Changes in gene expression of NES: 0.886 ± 0.037
[5]; [7]
  Changes in gene expression of TUBA1A: 1.016 ± 0.098
[5]; [8]
  Changes in gene expression of TUBA1A: 1.023 ± 0.160
[5]; [9]
  Changes in gene expression of TUBA1A: 1.354 ± 0.126
